Measurements from US9023789B2, “Amylin analogs and pharmaceutical compositions thereof” (Novo Nordisk A/S, priority 2012, dated 2015).
Numbered stars: 1 amine (or outer) side, 2 acyl side, 3 side chain; on linkers, the order of the positions; unused ones are H or OH. Bridge positions count the residues as written; N and C are the ends. Side chains are listed from the residue outwards. Peptide text beside a SMILES is read from it. * marks the point of attachment. C20 diacid = O=C(O)CCCCCCCCCCCCCCCCCCC(=O)*; γGlu = O=C(O)[C@H](CCC(=O)[*:2])N[*:1]; AEEA = NCCOCCOCC(=O)O

Assays:
Sprague Dawley (SD) rats = assay: ASSAY (I) efficacy testing on appetite (food intake) using an ad libitum fed rat model; format: in vivo; settings: rat, 30 nmol/kg
In short: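 Ad libitum fed SD rats (200–250 g) were housed singly on a reversed light/dark cycle and given one 0.01–3 mg/kg dose ip, po or sc just before lights-off, with 5–8 per dose group plus vehicle controls. Food intake was recorded hourly for 7 h, then at 24 h and sometimes 48 h; Grubbs outliers were excluded.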

rat calcitonin receptor = molecular target: T1, rat calcitonin receptor (Rattus norvegicus, UniProt P32214); assay: ASSAY (VIII) binding to the rat calcitonin receptor; settings: Table 7, read-out: rCTR bind IC50
T1 construct: expressed in transfected cells; host or cells: BHK tk'ts 13 (transient, FuGENE 6), membranes
T1 sequence (P32214 25-479 isoform P32214-2 limits assumed): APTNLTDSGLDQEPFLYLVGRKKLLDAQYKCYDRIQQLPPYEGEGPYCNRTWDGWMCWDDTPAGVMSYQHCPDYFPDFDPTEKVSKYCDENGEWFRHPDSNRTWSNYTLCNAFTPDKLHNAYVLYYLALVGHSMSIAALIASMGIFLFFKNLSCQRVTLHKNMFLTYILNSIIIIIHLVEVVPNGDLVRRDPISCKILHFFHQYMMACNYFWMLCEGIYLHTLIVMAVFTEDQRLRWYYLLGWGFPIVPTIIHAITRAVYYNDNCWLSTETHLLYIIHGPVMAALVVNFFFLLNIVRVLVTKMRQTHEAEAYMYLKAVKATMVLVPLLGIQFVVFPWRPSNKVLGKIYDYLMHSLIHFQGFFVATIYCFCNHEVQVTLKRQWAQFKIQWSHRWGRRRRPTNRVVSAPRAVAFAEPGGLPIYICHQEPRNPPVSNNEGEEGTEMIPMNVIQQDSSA
In short: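 Membranes were prepared from BHK tk′ts 13 cells transiently transfected with rat calcitonin receptor. Cells were grown in DMEM with 10% FBS and harvested approximately 48 hours after transfection.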

[1] = molecular target: T2, rat amylin receptor (rat calcitonin receptor + rat RAMP 3) (Rattus norvegicus, UniProt P32214+Q9JJ73); assay: ASSAY (VI) binding to the rat amylin receptor; settings: for IC50: binding to rat amylin receptor, read-out: rAmylin-R bind IC50
T2 construct: expressed in transfected cells; host or cells: BHK tk'ts 13 (transient, FuGENE 6), membranes
T2 sequence (P32214 25-479 isoform P32214-2 limits assumed): T1 sequence (P32214 25-479 isoform P32214-2 limits assumed)
T2 sequence (Q9JJ73 23-147 partner): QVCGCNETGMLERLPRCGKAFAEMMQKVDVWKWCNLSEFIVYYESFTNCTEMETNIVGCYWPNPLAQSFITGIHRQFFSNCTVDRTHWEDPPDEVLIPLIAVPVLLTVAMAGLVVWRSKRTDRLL
In short: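 This assay measured binding to the rat amylin receptor. BHK tk′ts 13 cells were transiently transfected with the rat calcitonin receptor using FuGENE® 6 (Roche), following the manufacturer's recommendations. About 48 hours after transfection, the cells were harvested and membranes were prepared from them for the binding determination.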

[2] = Table 7, rat binding selectivity, rCTR IC50 / rAmylin-R IC50
[3] = Table 7a (preferred compounds), rat binding selectivity, rCTR IC50 / rAmylin-R IC50
[4] = ratio of rCTR bind IC50 to rAmylin-R bind IC50

IC50 (rat calcitonin receptor) [nM]	IC50 ([1]; Table 7) [nM]	Ratio rCT/rAmylin binding [1, 2]	Ratio rCT/rAmylin binding [1, 3]	Ratio rCT/rAmylin binding [1, 4]	SMILES	Food intake reduction 0-24 h 30 nmol/kg (%) (Sprague Dawley (SD) rats)	Food intake reduction 24-48 h 30 nmol/kg (%) (Sprague Dawley (SD) rats)
128	1.97	64.7	64.7	64.7	CC[C@H](C)[C@H](NC(=O)[C@H](C)NC(=O)CNC(=O)[C@H](Cc1ccccc1)NC(=O)[C@H](CC(N)=O)NC(=O)[C@@H]1CCCN1C(=O)[C@H](CO)NC(=O)[C@H](CO)NC(=O)[C@H](Cc1c[nH]cn1)NC(=O)[C@H](CCCNC(=N)N)NC(=O)[C@H](CC(C)C)NC(=O)[C@H](Cc1ccccc1)NC(=O)[C@H](CCCNC(=N)N)NC(=O)[C@H](C)NC(=O)[C@H](CC(C)C)NC(=O)[C@H](CCCNC(=N)N)NC(=O)[C@H](CCC(N)=O)NC(=O)[C@@H](NC(=O)[C@H](C)NC(=O)[C@@H]1CSSC[C@H](NC(=O)[C@@H](N)CCCCNC(=O)COCCOCCNC(=O)CC[C@H](NC(=O)CCCCCCCCCCCCCCCCCCC(=O)O)C(=O)O)C(=O)N[C@@H](CC(N)=O)C(=O)N[C@@H]([C@@H](C)O)C(=O)N[C@@H](C)C(=O)N[C@@H]([C@@H](C)O)C(=O)N1)[C@@H](C)O)C(=O)N1CCC[C@H]1C(=O)N[C@@H](CO)C(=O)N[C@@H](CO)C(=O)N[C@H](C(=O)N1CCC[C@H]1C(=O)N[C@H](C(=O)NCC(=O)N[C@@H](CO)C(=O)N[C@@H](CC(N)=O)C(=O)N[C@H](C(=O)N[C@@H](Cc1ccc(O)cc1)C(N)=O)[C@@H](C)O)C(C)C)[C@@H](C)O [Example 64] (H-K([AEEA-γGlu-C20 diacid])CNTATCATQRLARFLRHSSPNFGAIPSSTPVGSNTY-NH2; disulfide 2-7; N-terminus assumed)	4	3
108	1.16	93.2	93.2	93.2	CC[C@H](C)[C@H](NC(=O)[C@H](C)NC(=O)CNC(=O)[C@H](Cc1ccccc1)NC(=O)[C@H](CC(N)=O)NC(=O)[C@@H]1CCCN1C(=O)[C@H](CO)NC(=O)[C@H](CO)NC(=O)[C@H](Cc1c[nH]cn1)NC(=O)[C@H](CCCNC(=N)N)NC(=O)[C@H](CC(C)C)NC(=O)[C@H](Cc1ccccc1)NC(=O)[C@H](CCCNC(=N)N)NC(=O)[C@H](C)NC(=O)[C@H](CC(C)C)NC(=O)[C@H](CCCNC(=N)N)NC(=O)[C@H](CCC(N)=O)NC(=O)[C@@H](NC(=O)[C@H](C)NC(=O)[C@@H]1CSSC[C@H](NC(=O)[C@@H](N)CCCCNC(=O)CC[C@H](NC(=O)CCCCCCCCCCCCCCCCCCC(=O)O)C(=O)O)C(=O)N[C@@H](CC(N)=O)C(=O)N[C@@H]([C@@H](C)O)C(=O)N[C@@H](C)C(=O)N[C@@H]([C@@H](C)O)C(=O)N1)[C@@H](C)O)C(=O)N1CCC[C@H]1C(=O)N[C@@H](CO)C(=O)N[C@@H](CO)C(=O)N[C@H](C(=O)N[C@@H](CC(N)=O)C(=O)N[C@H](C(=O)NCC(=O)N1CCC[C@H]1C(=O)N[C@@H](CC(N)=O)C(=O)N[C@H](C(=O)N[C@@H](Cc1ccc(O)cc1)C(N)=O)[C@@H](C)O)C(C)C)[C@@H](C)O [Example 65] (H-K([γGlu-C20 diacid])CNTATCATQRLARFLRHSSPNFGAIPSSTNVGPNTY-NH2; disulfide 2-7 (inferred); N-terminus assumed)	10	0
14.7	0.172	85.4	85.4	85.4	CC[C@H](C)[C@H](NC(=O)[C@H](C)NC(=O)CNC(=O)[C@H](Cc1ccccc1)NC(=O)[C@H](CC(N)=O)NC(=O)[C@@H]1CCCN1C(=O)[C@H](CO)NC(=O)[C@H](CO)NC(=O)[C@H](Cc1c[nH]cn1)NC(=O)[C@H](CCCNC(=N)N)NC(=O)[C@H](CC(C)C)NC(=O)[C@H](Cc1ccccc1)NC(=O)[C@H](Cc1c[nH]cn1)NC(=O)[C@H](C)NC(=O)[C@H](CC(C)C)NC(=O)[C@H](CCCNC(=N)N)NC(=O)[C@H](CCC(N)=O)NC(=O)[C@@H](NC(=O)[C@H](C)NC(=O)[C@@H]1CSSC[C@H](NC(=O)[C@@H](N)CCCCNC(=O)CC[C@H](NC(=O)CCCCCCCCCCCCCCCCCCC(=O)O)C(=O)O)C(=O)N[C@@H](CC(N)=O)C(=O)N[C@@H]([C@@H](C)O)C(=O)N[C@@H](C)C(=O)N[C@@H]([C@@H](C)O)C(=O)N1)[C@@H](C)O)C(=O)N1CCC[C@H]1C(=O)N[C@@H](CO)C(=O)N[C@@H](CO)C(=O)N[C@H](C(=O)N[C@@H](CC(N)=O)C(=O)N[C@H](C(=O)NCC(=O)N1CCC[C@H]1C(=O)N[C@@H](CC(N)=O)C(=O)N[C@H](C(=O)N[C@@H](Cc1ccc(O)cc1)C(N)=O)[C@@H](C)O)C(C)C)[C@@H](C)O [Example 67] (H-K([γGlu-C20 diacid])CNTATCATQRLAHFLRHSSPNFGAIPSSTNVGPNTY-NH2; disulfide 2-7 (inferred); N-terminus assumed)	47	0
28.5	0.234	121.9	121.9	121.9	CC[C@H](C)[C@H](NC(=O)[C@H](C)NC(=O)CNC(=O)[C@H](Cc1ccccc1)NC(=O)[C@H](CC(N)=O)NC(=O)[C@@H]1CCCN1C(=O)[C@H](CO)NC(=O)[C@H](CO)NC(=O)[C@H](Cc1c[nH]cn1)NC(=O)[C@H](CCCNC(=N)N)NC(=O)[C@H](CC(C)C)NC(=O)[C@H](Cc1ccccc1)NC(=O)[C@H](Cc1c[nH]cn1)NC(=O)[C@H](C)NC(=O)[C@H](CC(C)C)NC(=O)[C@H](CCCNC(=N)N)NC(=O)[C@H](CCC(N)=O)NC(=O)[C@@H](NC(=O)[C@H](C)NC(=O)[C@@H]1CSSC[C@H](NC(=O)[C@@H](N)CCCCNC(=O)COCCOCCNC(=O)CC[C@H](NC(=O)CCCCCCCCCCCCCCCCCCC(=O)O)C(=O)O)C(=O)N[C@@H](CC(N)=O)C(=O)N[C@@H]([C@@H](C)O)C(=O)N[C@@H](C)C(=O)N[C@@H]([C@@H](C)O)C(=O)N1)[C@@H](C)O)C(=O)N1CCC[C@H]1C(=O)N[C@@H](CO)C(=O)N[C@@H](CO)C(=O)N[C@H](C(=O)N[C@@H](CC(N)=O)C(=O)N[C@H](C(=O)NCC(=O)N1CCC[C@H]1C(=O)N[C@@H](CC(N)=O)C(=O)N[C@H](C(=O)N[C@@H](Cc1ccc(O)cc1)C(N)=O)[C@@H](C)O)C(C)C)[C@@H](C)O [Example 68] (H-K([AEEA-γGlu-C20 diacid])CNTATCATQRLAHFLRHSSPNFGAIPSSTNVGPNTY-NH2; disulfide 2-7)	33	0
